Results: publication PMC10396955, “2-Oxabicyclo[2.1.1]hexanes as saturated bioisosteres of the ortho-substituted phenyl ring” (Nature Chemistry, 2023)

What was measured:
[1] = Chemical stability of carboxylic acids (acid, base, storage); type: physicochemical; settings: room temperature, one day
From the text: We also checked the chemical stability of three representative carboxylic acids, 1b, 19b and 22b (Table 2), because we suspected that some of them could decompose via a retro-Michael-type reaction. […] All products were crystalline solids, and we stored all of them in closed vials at room temperature on the shelf.

| Compound | melting point [°C] | chemical stability ([1]; aqueous 1 M hydrochloric acid) | chemical stability ([1]; aqueous 1 M sodium hydroxide) |
| --- | --- | --- | --- |
| Cc1cncc(C23COC(C2)C3C(=O)O)c1 (stereo not drawn) [Compound 22b] | 204 to 205 | did not lead to any decomposition | did not lead to any decomposition |
| O=C(O)C1C2CC1(c1ccc(C(F)(F)F)cc1)CO2 (stereo not drawn) [Compound 19b] | 64 to 65 | did not lead to any decomposition | did not lead to any decomposition |
